Assay results published in patent US10046060B2, “Co-administration of an agent linked to an internalization peptide with an anti-inflammatory” (NoNO Inc., priority 2007, dated 2018).
Ends that are not written are not given here.

Legend:
humans = assay: Safety, Tolerability and Pharmacokinetic Study in humans: blood histamine; format: in vivo, human
Procedure: We carried out a Safety, Tolerability and Pharmacokinetic Study of Tat-NR2B9c in humans. Subjects were either normal, healthy, non-smoking males or post-menopausal or surgically sterile female subjects with a minimum age of 18 years. The subjects were either administered Tat-NR2B9c, Lot #: 124-134-001B, or were given placebo (Phosphate Buffered Saline), Lot #: 124-134-001A, administered as an intravenous infusion (10±1 minutes). Four subjects were dosed in each of Cohorts 1 to 3, and 10 subjects were dosed in each of Cohorts 4 to 8. All 62 subjects completed the study. Treatment periods for each cohort were as follows: Cohort 1: Sep. 14, 2006; Cohort 2: Sep. 26, 2006; Cohort 3: Oct. 6, 2006; Cohort 4: Oct. 20, 2006; Cohort 5: Nov. 6, 2006; Cohort 6: Dec. 4, 2006; Cohort 7: Dec. 17, 2006; Cohort 8: Feb. 25, 2007.
During the study period, 11 blood samples were collected for pharmacokinetic analysis from each subject at the following timepoints: 0.00 (pre-dose), 0.08 (5 minutes), 0.17 to 0.25 (10 to 15 minutes, precisely at the end of each individual drug infusion), 0.33 (20 minutes), 0.50, 0.75, 1.00, 2.00, 6.00, 12.00, and 24.00 hours post-dose. In addition, 8 blood samples were collected for histamine analysis from each subject at the following timepoints: 0.00 (pre-dose), and at 0.08 (5 minutes), 0.17 (10 minutes), 0.25, 0.50, 1.00, 2.00, and 24.00 hours post-dose.

[1] = Maximum Tolerated Dose in preclinical animal trials, dogs; details: dog, in vivo
[2] = Maximum Tolerated Dose in preclinical animal trials, rats; details: rat, in vivo

For YGRKKRRQRRRKLSSIESDV [Tat-NR2B9c], the “Number of Subjects with Histamine levels >10 nmol/L” value (“Number of Subjects” below) (humans; NA-1 0.75 mg/kg (n = 8), Day 1, 0.00 hr) was 0, the “Number of Subjects” value (humans; NA-1 0.75 mg/kg (n = 8), Day 1, 0.08 hr) was 0 and the “Number of Subjects” value (humans; NA-1 0.75 mg/kg (n = 8), Day 1, 0.17 hr) was 0. The “Number of Subjects” value (humans; NA-1 0.75 mg/kg (n = 8), Day 1, 0.25 hr) was 0, the “Number of Subjects” value (humans; NA-1 0.75 mg/kg (n = 8), Day 1, 0.50 hr) was 0 and the “Number of Subjects” value (humans; NA-1 0.75 mg/kg (n = 8), Day 1, 1.00 hr) was 0. For the same sequence, the “Number of Subjects” value (humans; NA-1 0.75 mg/kg (n = 8), Day 1, 2.00 hr) was 0, the “Number of Subjects” value (humans; NA-1 0.75 mg/kg (n = 8), Day 1, 24.00 hr) was 0 and the “Number of Subjects” value (humans; NA-1 0.75 mg/kg (n = 8), Day 7) was 0. For the same sequence, the “Number of Subjects” value (humans; NA-1 0.75 mg/kg (n = 8), Day 14) was 0, the “Number of Subjects” value (humans; NA-1 0.75 mg/kg (n = 8), Day 28 End-of-study) was 0 and the “Number of Subjects” value (humans; NA-1 0.75 mg/kg (n = 8), Screening) was 0. For the same sequence, the “Number of Subjects” value (humans; NA-1 1.50 mg/kg (n = 8), Day 1, 0.00 hr) was 0, the “Number of Subjects” value (humans; NA-1 1.50 mg/kg (n = 8), Day 1, 0.08 hr) was 0 and the “Number of Subjects” value (humans; NA-1 1.50 mg/kg (n = 8), Day 1, 0.17 hr) was 0. For the same sequence, the “Number of Subjects” value (humans; NA-1 1.50 mg/kg (n = 8), Day 1, 0.25 hr) was 0, the “Number of Subjects” value (humans; NA-1 1.50 mg/kg (n = 8), Day 1, 0.50 hr) was 0 and the “Number of Subjects” value (humans; NA-1 1.50 mg/kg (n = 8), Day 1, 1.00 hr) was 0. The “Number of Subjects” value (humans; NA-1 1.50 mg/kg (n = 8), Day 1, 2.00 hr) was 0, the “Number of Subjects” value (humans; NA-1 1.50 mg/kg (n = 8), Day 1, 24.00 hr) was 0 and the “Number of Subjects” value (humans; NA-1 1.50 mg/kg (n = 8), Day 7) was 0. For the same sequence, the “Number of Subjects” value (humans; NA-1 1.50 mg/kg (n = 8), Day 14) was 0, the “Number of Subjects” value (humans; NA-1 1.50 mg/kg (n = 8), Day 28 End-of-study) was 0 and the “Number of Subjects” value (humans; NA-1 1.50 mg/kg (n = 8), Screening) was 0. For the same sequence, the “Number of Subjects” value (humans; NA-1 2.60 mg/kg (n = 8), Day 1, 0.00 hr) was 0, the “Number of Subjects” value (humans; NA-1 2.60 mg/kg (n = 8), Day 1, 0.08 hr) was 0 and the “Number of Subjects” value (humans; NA-1 2.60 mg/kg (n = 8), Day 1, 0.17 hr) was 0. For the same sequence, the “Number of Subjects” value (humans; NA-1 2.60 mg/kg (n = 8), Day 1, 0.25 hr) was 0, the “Number of Subjects” value (humans; NA-1 2.60 mg/kg (n = 8), Day 1, 0.50 hr) was 0 and the “Number of Subjects” value (humans; NA-1 2.60 mg/kg (n = 8), Day 1, 1.00 hr) was 0. The “Number of Subjects” value (humans; NA-1 2.60 mg/kg (n = 8), Day 1, 2.00 hr) was 0, the “Number of Subjects” value (humans; NA-1 2.60 mg/kg (n = 8), Day 1, 24.00 hr) was 0 and the “Number of Subjects” value (humans; NA-1 2.60 mg/kg (n = 8), Day 7) was 0. For the same sequence, the “Number of Subjects” value (humans; NA-1 2.60 mg/kg (n = 8), Day 14) was 0, the “Number of Subjects” value (humans; NA-1 2.60 mg/kg (n = 8), Day 28 End-of-study) was 0 and the “Number of Subjects” value (humans; NA-1 2.60 mg/kg (n = 8), Screening) was 0. For the same sequence, the “Number of Subjects” value (humans; NA-1 3.75 mg/kg (n = 8), Day 1, 0.00 hr) was 0, the “Number of Subjects” value (humans; NA-1 3.75 mg/kg (n = 8), Day 1, 0.08 hr) was 0 and the “Number of Subjects” value (humans; NA-1 3.75 mg/kg (n = 8), Day 1, 0.17 hr (10 minutes)) was 7 of the 8. The “Number of Subjects” value (humans; NA-1 3.75 mg/kg (n = 8), Day 1, 0.17 hr (10 minutes), listed as NA 1, 3.75 mg/kg) was “Seven of 8”, the “Number of Subjects” value (humans; NA-1 3.75 mg/kg (n = 8), Day 1, 0.17 hr (10 minutes), listed as NA-1, 3.75 mg/kg) was 7 and the “Number of Subjects” value (humans; NA-1 3.75 mg/kg (n = 8), Day 1, 0.25 hr (15 minutes)) was 3. For the same sequence, the “Number of Subjects” value (humans; NA-1 3.75 mg/kg (n = 8), Day 1, 0.50 hr) was 0, the “Number of Subjects” value (humans; NA-1 3.75 mg/kg (n = 8), Day 1, 1.00 hr) was 0 and the “Number of Subjects” value (humans; NA-1 3.75 mg/kg (n = 8), Day 1, 2.00 hr) was 0. The “Number of Subjects” value (humans; NA-1 3.75 mg/kg (n = 8), Day 1, 24.00 hr) was 0, the “Number of Subjects” value (humans; NA-1 3.75 mg/kg (n = 8), Day 7) was 0 and the “Number of Subjects” value (humans; NA-1 3.75 mg/kg (n = 8), Day 14) was 0. The “Number of Subjects” value (humans; NA-1 3.75 mg/kg (n = 8), Day 28 End-of-study) was 0, the “Number of Subjects” value (humans; NA-1 3.75 mg/kg (n = 8), Screening) was 0 and the “Time for abnormal histamine results to return to the normal range” value (humans; after drug administration) was ≤ 24.00 h. For the same sequence, the “Abnormal histamine levels in other dose groups” value (humans; dose groups other than 3.75 mg/kg) was “no treatment group had significant abnormal levels of histamine”, the MTD [1] was 12.5 mg/kg and the MTD [2] was 100 mg/kg.
